Results: US20070231897A1, “Induction of Insulin Secreting Cell” (KYOTO UNIVERSITY, priority 2004, published 2007)

Legend:
pancreatic acinar cells [1] = test: Correlation between EGF concentration and induction of colonies containing insulin-positive cells; type: cell-based, mouse; settings: 0.5% fetal bovine serum (FIG. 9)
Description: The recovered cells were suspended in a nutrition medium (e.g., RPMI-1640) containing 0.5% fetal bovine serum (Sigma) and 20 ng/ml epidermal growth factor (EGF) (R&D Systems: Minneapolis, Minn., USA), and inoculated in cell culture dishes which were less adhesive for cells (Nalge Nunc: Rochester, N.Y., USA) and cultured in an incubator set at 37° C., 5% CO2. The pancreatic acinar cells, at early stages of culture, formed cell clusters having smooth boundaries consisting of congregated cells and, and kept themselves floating (FIG. 1A), and, at around day 3, adhere to the bottom of the dish and started to extend on it. After about 7 days, they formed relatively small cell aggregates (colonies) consisting of several dozen to several hundred cells (FIG. 1B). The cell density upon inoculation, which ranged from 1- to 10-fold dilution of that in pre-culture, had no influence on the form of the colonies observed.
In accordance with the method described in Example 1, except that the concentration of fetal bovine serum was fixed at 0.5% and EGF was used as the growth factor at a concentration of 0, 2, 20 or 200 ng/ml, main culture of pancreatic acinar cells were performed to assess the effect of EGF on induction of aimed cells (cells forming colonies containing insulin-positive cells as shown in FIG. 1B).

pancreatic acinar cells [2] = test: Effect of growth factors on insulin-positive cell induction in main culture of pancreatic acinar cells; type: cell-based, mouse; settings: day 7 of culture, EGF 20 ng/ml, HGF, FGF7 and FGF10 10 ng/ml, GLP-1 30 ng/ml; for proportion of insulin-positive cells: rank among growth factors (FIG. 8B)
Description: Eight-week old male mice (C57B1/6Cr Slc)(Japan SLC, Inc.: Hamamatsu, Japan) were anesthetized with 50 mg/kg of Nembtal (Dainippon Pharma Co., Ltd.: Osaka, Japan) and subjected to laparotomy. The choledoch duct was ligated near the position where it opens to the duodenum. Using a 27G winged needle (Terumo Corporation: Tokyo, Japan), 2-3 ml of Hank's buffer containing 0.05% collagenase P (Roche: Basel, Switzerland) and 10% fetal bovine serum was infused from the liver side. The pancreas, now swollen, was extracted and digested in 5 ml of Hank's buffer per pancreas for 18 minutes at 37° C. The digested pancreas then was made to pass through a 14G indwelling needle in both directions twice to disperse the pancreatic cells, which washed well with Hank's buffer containing 0.1% bovine serum albumin (Sigma: Saint Louis, Mo., USA). The pancreatic cells thus obtained were suspended in a mixed solution (solution A) consisting of 8.3% Ficoll 400 (Amersham Bioscience: Uppsala, Sweden) and 16.7% Conray 400 (Daiichi Pharmaceutical, Tokyo, Japan), and after a 87.5%-diluted solution of solution A and then a 50%-diluted solution of solution A were placed on it in the order, centrifuged (2,000 rpm, 10 min). Pancreatic acinar cells condensed in the spun down, lowest fraction were collected, and to them was added a sterilized 0.1 mg/ml solution of dithizone (1,5-diphenylthiocarbazone) (Nacalai Tesque, Inc.: Kyoto, Japan) and stained for 15 minutes at 37° C. in order to remove contaminating mature B-cells. Mature B-cells are stained red with dithizone, which is a chelating agent for zinc, for high concentration of insulin occurs in mature B-cells in the form of a hexamer via zinc (Latif et al., Transplantation, 45:827(1988)). By removing red-stained mature B-cells under a stereomicroscope, a fraction containing highly concentrated pancreatic acinar cells were obtained. […]

| Substance | effect on induction of aimed cells (cells forming colonies containing insulin-positive cells) (pancreatic acinar cells [1]; EGF 20 ng/ml) | effect on induction of aimed cells (cells forming colonies containing insulin-positive cells) (pancreatic acinar cells [1]; EGF 200 ng/ml) | total cell count (growth of the cells) (pancreatic acinar cells [2]; rank among growth factors (FIG. 8A)) | proportion of insulin-positive cells (pancreatic acinar cells [2]) |
| --- | --- | --- | --- | --- |
| epidermal growth factor [EGF, epidermal growth factor (R&D Systems), growth factor added to the culture medium] | remarkable effect | remarkable effect | most effective | most effective |
| hepatocyte growth factor [HGF] |  |  |  | this was followed by FGF10 and HGF |
